# From patent US20250179047A1, “5-[7-(3,4-DIHYDRO-1H-ISOQUINOLINE-2-CARBONYL)-1,2,3,4 TETRAHYDROISOQUINOLIN-6-YL]-1H-PYRROLE-3-CARBOXAMIDE DERIVATIVES, PHARMACEUTICAL COMPOSITIONS CONTAINING THEM AND THEIR USES AS PRO-APOPTOTIC AGENTS” (LES LABORATOIRES SERVIER, priority 2022, published 2025)
# Key:
# BCL2 D103Y = BCL2 D103Y (Homo sapiens, UniProt P10415, D103Y); test: TR-FRET competitive binding assay, BCL2 D103Y; conditions: Ki determined from IC50, read-out: TR_FRET EKI_Bcl2 D103Y
# Outline: (§1)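 Terbium-labelled N-terminal Halo-fusion BCL2 or BCLXL (E. coli), 0.5 nM, competed against fluorescein-labelled PUMA peptide (2 or 20 nM) for 2 h at 23° C in 50 mM Hepes pH 7.5, 150 mM NaCl, 5% DMSO. TR-FRET 520/495 nm ratio gave IC50 by four-parameter fit; Ki derived from IC50.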
# BCL2 WT = BCL2 WT (Homo sapiens (Human), UniProt P10415); test: TR-FRET competitive binding assay, BCL2 WT; conditions: Ki determined from IC50, read-out: TR_FRET EKI_Bcl2 WT
# Outline: as §1
# KMS-12-PE Bcl-2 G101V = test: In vitro cytotoxicity CellTiter-Glo 48 h, KMS-12-PE Bcl-2 G101V; assay type: cell-based; conditions: for Ratio (G101V/WT): C50 KMS-12-PE Bcl-2 G101V over C50 KMS-12-PE Bcl-2 WT; for IC50: Homo sapiens, KMS-12-PE, 48 h, CellTiter-Glo, C50 = concentration needed to reach 50% of the cellular viability
# Outline: (§2)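 Bcl-2 WT- and G101V-expressing KMS-12-PE cells; 48 h treatment at 37 °C, 5% CO2; CellTiter-Glo ATP luminescence; C50 from 11-point curves.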
# KMS-12-PE Bcl-2 WT = test: In vitro cytotoxicity CellTiter-Glo 48 h, KMS-12-PE Bcl-2 WT; assay type: cell-based; conditions: Homo sapiens, KMS-12-PE, C50 = concentration needed to reach 50% of the cellular viability
# Outline: as §2
# BCLXL WT = BCLXL WT (Homo sapiens (Human), UniProt Q07817); test: TR-FRET competitive binding assay, BCLXL WT; conditions: for Ki: BCLXL WT, Ki determined from IC50, read-out: TR_FRET EKI BclxL; for TR_FRET EKI BCLxL/WT selectivty ratio: ratio Ki BCLxL / Ki BCL2 WT
# Outline: as §1
# BCL2 G101V [1] = biological target: BCL2 G101V (Homo sapiens, UniProt P10415, G101V); test: TR-FRET competitive binding assay, BCL2 G101V; conditions: BCL2 G101V; Ki determined from IC50; read-out: TR_FRET EKI_Bcl2 G101V
# Outline: as §1
# BCL2 G101V [2] = test: TR-FRET competitive binding assay, BCL2 G101V; set-up: species or system human; conditions: ratio Ki BCL2 G101V / Ki BCL2 WT
# Outline: as §1
# BCLXL WT, sequence (Q07817 other isoform, or with tags, fused parts or gaps): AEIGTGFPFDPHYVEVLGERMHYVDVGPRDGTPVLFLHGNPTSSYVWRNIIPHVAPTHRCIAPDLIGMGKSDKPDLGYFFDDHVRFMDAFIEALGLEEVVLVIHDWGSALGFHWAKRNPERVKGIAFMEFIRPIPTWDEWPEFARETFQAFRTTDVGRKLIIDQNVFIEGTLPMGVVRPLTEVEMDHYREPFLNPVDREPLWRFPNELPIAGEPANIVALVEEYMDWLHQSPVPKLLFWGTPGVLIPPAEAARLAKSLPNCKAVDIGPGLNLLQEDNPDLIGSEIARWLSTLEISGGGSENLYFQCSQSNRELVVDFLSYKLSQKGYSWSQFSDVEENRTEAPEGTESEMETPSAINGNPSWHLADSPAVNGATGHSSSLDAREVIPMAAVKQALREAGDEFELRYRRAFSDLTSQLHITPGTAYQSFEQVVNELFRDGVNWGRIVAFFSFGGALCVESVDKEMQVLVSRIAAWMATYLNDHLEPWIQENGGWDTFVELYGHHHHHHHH
SMILES,Ki (BCL2 D103Y) [nM],Ki (BCL2 WT) [nM],Ratio (G101V/WT) (KMS-12-PE Bcl-2 G101V),IC50 (KMS-12-PE Bcl-2 G101V) [µM],IC50 (KMS-12-PE Bcl-2 WT) [µM],Ki (BCLXL WT) [nM],TR_FRET EKI BCLxL/WT selectivty ratio (BCLXL WT),Ki (BCL2 G101V [1]) [nM],TR_FRET EKI G101V/WT selectivty ratio (BCL2 G101V [2])
"Cc1c(N(C(=O)c2cc(-c3cc4c(cc3C(=O)N3Cc5ccccc5C[C@H]3C)CN(C(=O)Cc3ccc(Cl)cc3F)CC4)n(C)c2C)c2ccc(O)cc2)cc(C#N)n1C [Example 19, 5-{2-[2-(4-chloro-2-fluorophenyl)acetyl]-7-[(3R)-3-methyl-1,2,3,4-tetrahydroisoquinoline-2-carbonyl]-1,2,3,4-tetrahydroisoquinolin-6-yl}-N-(5-cyano-1,2-dimethyl-1H-pyrrol-3-yl)-N-(4-hydroxyphenyl)-1,2-dimethyl-1H-pyrrole-3-carboxamide]",0.97,0.4,6.91,0.0423,0.0061,7.4,18.5,1.9,4.8
"Cc1c(N(C(=O)c2cc(-c3cc4c(cc3C(=O)N3Cc5ccccc5C[C@H]3C)CN(C(=O)C3Cc5ccccc5O3)CC4)n(C)c2C)c2ccc(O)cc2)cc(C#N)n1C (stereo partly drawn) [Example 20, N-(5-cyano-1,2-dimethylpyrrol-3-yl)-5-{2-[(2,3-dihydro-1-benzofuran-2-yl)carbonyl]-7-{[(3R)-3-methyl-3,4-dihydro-1H-isoquinolin-2-yl]carbonyl}-3,4-dihydro-1H-isoquinolin-6-yl}-N-(4-hydroxyphenyl)-1,2-dimethylpyrrole-3-carboxamide]",0.68,0.53,6.74,0.0681,0.0101,6.6,12.5,2.7,5.0
"Cc1c(C(=O)N(c2ccc(O)cc2)c2cc(C#N)n(CCN(C)C3CC3)c2C)cc(-c2cc3c(cc2C(=O)N2Cc4ccccc4C[C@H]2C)CN(C(=O)Cc2ccccc2)CC3)n1C [Example 22, N-[5-cyano-1-[2-[cyclopropyl(methyl)amino]ethyl]-2-methyl-pyrrol-3-yl]-N-(4-hydroxyphenyl)-1,2-dimethyl-5-[7-[(3R)-3-methyl-3,4-dihydro-1H-isoquinoline-2-carbonyl]-2-(2-phenylacetyl)-3,4-dihydro-1H-isoquinolin-6-yl]pyrrole-3-carboxamide]",0.82,0.2,8.47,0.0864,0.0102,2.3,11.5,1,5.0
"Cc1c(N(C(=O)c2cc(-c3cc4c(cc3C(=O)N3Cc5ccccc5C[C@H]3C)CN(C(=O)Cc3ccc(Br)cc3F)CC4)n(C)c2C)c2ccc(O)cc2)cc(C#N)n1C [Example 24, 5-{2-[2-(4-bromo-2-fluorophenyl)acetyl]-7-[(3R)-3-methyl-1,2,3,4-tetrahydroisoquinoline-2-carbonyl]-1,2,3,4-tetrahydroisoquinolin-6-yl}-N-(5-cyano-1,2-dimethyl-1H-pyrrol-3-yl)-N-(4-hydroxyphenyl)-1,2-dimethyl-1H-pyrrole-3-carboxamide]",1.02,0.53,7.19,0.0423,0.0059,6.1,11.5,1.8,3.4
"Cc1c(N(C(=O)c2cc(-c3cc4c(cc3C(=O)N3Cc5ccccc5C[C@H]3C)CN(C(=O)Cc3ccc(OCCN5CCN(CC(F)(F)F)CC5)cc3)CC4)n(C)c2C)c2ccc(O)cc2)cc(C#N)n1C [Example 32, N-(5-cyano-1,2-dimethyl-1H-pyrrol-3-yl)-N-(4-hydroxyphenyl)-1,2-dimethyl-5-{7-[(3R)-3-methyl-1,2,3,4-tetrahydroisoquinoline-2-carbonyl]-2-[2-(4-{2-[4-(2,2,2-trifluoroethyl)piperazin-1-yl]ethoxy}phenyl)acetyl]-1,2,3,4-tetrahydroisoquinolin-6-yl}-1H-pyrrole-3-carboxamide]",1.04,0.64,5.38,0.0393,0.0073,6.7,10.5,1.7,2.6
"Cc1c(N(C(=O)c2cc(-c3cc4c(cc3C(=O)N3Cc5ccccc5C[C@H]3C)CN(C(=O)Cc3ccc(OCCN5CC6(CCS6(=O)=O)C5)cc3)CC4)n(C)c2C)c2ccc(O)cc2)cc(C#N)n1C [Example 37, N-(5-cyano-1,2-dimethyl-1H-pyrrol-3-yl)-5-(2-{2-[4-(2-{1,1-dioxo-1λ^6-thia-6-azaspiro[3.3]heptan-6-yl}ethoxy)phenyl]acetyl}-7-[(3R)-3-methyl-1,2,3,4-tetrahydroisoquinoline-2-carbonyl]-1,2,3,4-tetrahydroisoquinolin-6-yl)-N-(4-hydroxyphenyl)-1,2-dimethyl-1H-pyrrole-3-carboxamide]",0.28,0.1,5.36,0.0932,0.0174,1.3,13.0,0.3,2.7
"Cc1c(N(C(=O)c2cc(-c3cc4c(cc3C(=O)N3Cc5ccccc5C[C@H]3C)CN(C(=O)Cc3ccc(N5CCN6CC(F)(F)C[C@H]6C5)cc3F)CC4)n(C)c2C)c2ccc(O)cc2)cc(C#N)n1C [Example 40, 5-[2-(2-{4-[(8aS)-7,7-difluoro-hexahydropyrrolo[1,2-a]piperazin-2-yl]-2-fluorophenyl}acetyl)-7-{[(3R)-3-methyl-3,4-dihydro-1H-isoquinolin-2-yl]carbonyl}-3,4-dihydro-1H-isoquinolin-6-yl]-N-(5-cyano-1,2-dimethylpyrrol-3-yl)-N-(4-hydroxyphenyl)-1,2-dimethylpyrrole-3-carboxamide]",2.11,0.68,4.54,0.0426,0.0094,7,10.3,3,4.4
"CCn1c(C#N)cc(N(C(=O)c2cc(-c3cc4c(cc3C(=O)N3Cc5ccccc5C[C@H]3C)CN(C(=O)Cc3ccc(OCCN5CCOCC5)cc3)CC4)n(C)c2C)c2ccc(O)cc2)c1C [Example 41, N-(5-cyano-1-ethyl-2-methyl-pyrrol-3-yl)-N-(4-hydroxyphenyl)-1,2-dimethyl-5-[7-[(3R)-3-methyl-3,4-dihydro-1H-isoquinoline-2-carbonyl]-2-[2-[4-(2-morpholinoethoxy)phenyl]acetyl]-3,4-dihydro-1H-isoquinolin-6-yl]pyrrole-3-carboxamide]",0.55,0.12,5.41,0.051,0.0094,2,16.7,0.4,3.1
